Drawing on US20210347780A1, “CDPK1 INHIBITORS, COMPOSITIONS, AND METHODS RELATED THERETO” (Vyera Pharmaceuticals, LLC, priority 2018, published 2021), this text covers IC50 for 61 molecules.

The target of the first assay is T1, T. gondii CDPK1 (tgCDPK1) (Toxoplasma gondii, UniProt Q9BJF5).
T1 sequence (Q9BJF5 1-507): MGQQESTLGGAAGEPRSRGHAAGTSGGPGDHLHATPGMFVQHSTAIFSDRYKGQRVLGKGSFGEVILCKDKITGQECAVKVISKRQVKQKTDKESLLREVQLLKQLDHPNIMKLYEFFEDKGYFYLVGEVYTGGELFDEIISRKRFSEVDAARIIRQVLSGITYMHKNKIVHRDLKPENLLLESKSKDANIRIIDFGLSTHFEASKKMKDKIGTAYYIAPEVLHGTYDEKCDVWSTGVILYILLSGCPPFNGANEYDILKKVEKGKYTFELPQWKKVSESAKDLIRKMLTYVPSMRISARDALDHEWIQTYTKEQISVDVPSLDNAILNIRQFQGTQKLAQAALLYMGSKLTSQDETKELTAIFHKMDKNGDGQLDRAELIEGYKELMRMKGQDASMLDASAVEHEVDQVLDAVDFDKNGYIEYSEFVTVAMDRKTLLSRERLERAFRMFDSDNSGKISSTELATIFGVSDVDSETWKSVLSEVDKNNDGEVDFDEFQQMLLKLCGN
The assay can be described thus: biochemical. Particulars: inhibition of T. gondii CDPK1; at least three independent replicates; read-out: tgCDPK1 IC50. Here is the method:
Certain of the compounds prepared as described above were assayed to determine their IC50 for inhibition of T. gondii CDPK1 (tgCDPK1). At least three independent replicates of the assay were conducted for each compound tested.
Usually IC50 stands for the concentration that inhibits the measured activity by half. Turning to `Nc1ncnc2c1c(Oc1cc(C(F)(F)F)ccn1)nn2[C@H]1CCCC[C@H]1O` (racemic) [191 cis (rac)], the IC50 was found to be 44 nM. Still for that read-out and setting: then `Nc1ncnc2c1c(Oc1cc(C(F)(F)F)ccn1)nn2[C@@H]1CCCC[C@H]1O` (racemic) [191 trans (rac)], with 25 nM; and `Nc1ncnc2c1c(Oc1cc(O)ccn1)nn2[C@@H]1CCCC[C@H]1O` (single isomer, unassigned) [Compound 283], with 147 nM; and `Nc1ncnc2c1c(Oc1cc(O)ccn1)nn2[C@@H]1CCCC[C@@H]1O` (single isomer, unassigned) [Compound 284], with 39.2 nM. As to `COc1ccnc(Oc2nn([C@@H]3CCCC[C@H]3O)c3ncnc(N)c23)c1` (single isomer, unassigned) [Compound 285], the IC50 was 1400 nM.

`COc1ccnc(Oc2nn([C@H]3CCCC[C@H]3O)c3ncnc(N)c23)c1` (single isomer, unassigned) [Compound 286]: the IC50 turned out to be 144 nM. Still for that read-out and setting: then `Nc1ncnc2c1c(Oc1cc(C(F)(F)F)ccn1)nn2[C@@H]1CCCC[C@H]1O` [191 (R,R)], with 8.4 nM. With `Nc1ncnc2c1c(Oc1cc(C(F)(F)F)ccn1)nn2[C@H]1CCCC[C@@H]1O` [191 (S,S)], the IC50 was 125 nM.

On to `Nc1ncnc2c1c(Oc1cc(CO)ccn1)nn2C1CC1` [Compound 86, (2-((4-amino-1-cyclopropyl-1H-pyrazole[3,4-d]pyrimidin-3-yl)oxy)pyridin-4-yl)methanol], for which the IC50 came to 29.6 nM. On the same count and under the same terms, as for `COc1ccnc(Oc2nn(C3CCC3)c3ncnc(N)c23)c1` [Compound 112, 1-cyclobuty1-3-((4-methoxypyridin-2-yl)oxy)-1H-pyrazolo[3,4-d]pyrimidin-4-amine], the figure is 14.6 nM. Turning to `Nc1ncnc2c1c(Oc1cc(C(F)(F)F)ccn1)nn2[C@H]1C[C@H](O)C1` [Compound 113, (trans)-3-(4-amino-3-((4-(trifluoromethyl)pyridin-2-yl)oxy)-1H-pyrazolo[3,4-d]pyrimidin-1-yl)cyclobutan-1-ol], the IC50 is 26.5 nM. Turning to `Nc1ncnc2c1c(Oc1cc(Cl)ccn1)nn2[C@H]1C[C@H](O)C1` [Compound 116], the IC50 is 15.4 nM.

In the case of `Nc1ncnc2c1c(Oc1cccc(Cl)c1)nn2C1CCC1` [Compound 121, 3-(3-chlorophenoxy)-1-cyclobutyl-1H-pyrazolo[3,4-d]pyrimidin-4-amine], the IC50 came out at 7.41 nM.

Take `Nc1ncnc2c1c(Cc1cccc(Cl)c1)nn2[C@H]1C[C@H](O)C1` [Compound 124, (trans)-3-(4-amino-3-(3-chlorobenzyl)-1H-pyrazolo[3,4-d]pyrimidin-1-yl)cyclobutan-1-ol]: the IC50 amounted to 8.87 nM.

`Nc1ncnc2c1c(Cc1cccc(C(F)(F)F)c1)nn2[C@H]1C[C@H](O)C1` [Compound 125]: the IC50 was 36 nM.

As for `Nc1ncnc2c1c(Cc1cccc(Br)c1)nn2[C@H]1C[C@H](O)C1` [Compound 127], the IC50 was determined as 18.4 nM. Turning to `Nc1ncnc2c1c(Cc1cccc(F)c1)nn2[C@H]1C[C@H](O)C1` [Compound 128], the IC50 is 28.3 nM.

As for `Nc1ncnc2c1c(Cc1cccc(Cl)c1)nn2[C@H]1C[C@@H](O)C1` [Compound 130, (cis)-3-(4-amino-3-(3-chlorobenzyl)-1H-pyrazolo[3,4-d]pyrimidin-1-yl)cyclobutan-1-ol], the IC50 was 15.1 nM. In the case of `Nc1ncnc2c1c(Cc1cccc(Br)c1)nn2[C@H]1C[C@@H](O)C1` [Compound 131], the IC50 was 11.4 nM. Same read-out and setting: as for `Nc1ncnc2c1c(Cc1cccc(F)c1)nn2[C@H]1C[C@@H](O)C1` [Compound 132], the figure is 28.4 nM; as for `Nc1ncnc2c1c(Cc1cccc(Cl)c1)nn2[C@H]1C[C@@H](F)C1` [Compound 135, 3-(3-chlorobenzyl)-1-((cis)-3-fluorocyclobutyl)-1H-pyrazolo[3,4-d]pyrimidin-4-amine], 7.05 nM; as for `Nc1ncnc2c1c(Oc1cccc(C(F)(F)F)c1)nn2[C@H]1C[C@@H](O)C1` [Compound 151], 31.3 nM. Turning to `Nc1ncnc2c1c(Oc1cccc(Cl)c1)nn2[C@H]1C[C@@H](O)C1` [Compound 152], the IC50 was determined as 27.3 nM. In the case of `Nc1ncnc2c1c(Oc1cccc(Cl)c1)nn2[C@H]1C[C@H](F)C1` [Compound 156], the IC50 is 10 nM. As for `Nc1ncnc2c1c(Cc1c[nH]c3ccc(F)cc13)nn2[C@H]1C[C@H](F)C1` [Compound 157], the half-maximal inhibitory concentration (IC50) came to 11 nM.

For the molecule `Nc1ncnc2c1c(Oc1cc(C(F)(F)F)ccn1)nn2C1CC1` [Compound 159], the IC50 was 13 nM.

As to `Nc1ncnc2c1c(Cc1cccc(F)c1)nn2[C@H]1C[C@H](F)C1` [Compound 161], the IC50 came to 14.2 nM.

For the molecule `COc1ccnc(Oc2nn([C@H]3C[C@H](F)C3)c3ncnc(N)c23)c1` [Compound 162], the IC50 was found to be 17.4 nM.

Consider `Nc1ncnc2c1c(Oc1cc(Cl)ccn1)nn2[C@H]1C[C@@H](O)C1` [Compound 163], for which the IC50 is 18 nM.

`Nc1ncnc2c1c(Cc1cccc(F)c1)cn2[C@H]1C[C@H](O)C1` [Compound 164]: the IC50 stood at 28.3 nM. Regarding `Nc1ncnc2c1c(Oc1cc(C3CC3)ccn1)nn2C1CC1` [Compound 165], the IC50 amounted to 28.9 nM. For `Nc1ncnc2c1c(Oc1cccc(C(F)(F)F)c1)nn2[C@H]1C[C@H](F)C1` [Compound 166], the IC50 is 28.9 nM. Turning to `COc1ccnc(Oc2nn([C@H]3C[C@@H](O)C3)c3ncnc(N)c23)c1` [Compound 168], the IC50 turned out to be 37.1 nM. With `Nc1ncnc2c1c(Oc1cc(OC(F)(F)F)ccn1)nn2C1CC1` [Compound 169], the IC50 was 37.7 nM. With `Nc1ncnc2c1c(Oc1cc(C(F)(F)F)ccn1)nn2[C@H]1C[C@@H](O)C1` [Compound 170], the IC50 turned out to be 38.6 nM. Regarding `N#Cc1cccc(Cc2nn([C@H]3C[C@H](F)C3)c3ncnc(N)c23)c1` [Compound 172], the IC50 came out at 45.9 nM. In the case of `N#Cc1cccc(Oc2nn([C@H]3C[C@H](F)C3)c3ncnc(N)c23)c1` [Compound 173], the IC50 is 49.8 nM. Same read-out and setting: as for `NC(=O)c1ccnc(Oc2nn([C@H]3C[C@H](F)C3)c3ncnc(N)c23)c1` [Compound 174], the figure is 69.7 nM; as for `COc1ccnc(Oc2nn([C@H]3C[C@H](F)C3)c3ncnc(N)c23)c1` [Compound 175], 17.4 nM; as for `N#Cc1cccc(Oc2nn([C@H]3C[C@H](O)C3)c3ncnc(N)c23)c1` [Compound 178], 79.6 nM. Turning to `Nc1ncnc2c1c(Oc1cccc(C(F)(F)F)c1)nn2[C@H]1C[C@H](O)C1` [Compound 179], the IC50 was found to be 47.9 nM. On to `Nc1ncnc2c1c(Cc1c[nH]c3ccc(F)cc13)nn2[C@H]1C[C@H](O)C1` [Compound 184], for which the IC50 is 10.2 nM. Still for that read-out and setting: then `Nc1ncnc2c1c(Oc1cc(C(F)(F)F)ccn1)nn2C1CCC(F)(F)CC1` [Compound 185], with 38.4 nM; and `Nc1ncnc2c1c(Oc1cc(C(F)(F)F)ccn1)nn2CC1CC1` [Compound 186], with 22.4 nM; and `Nc1ncnc2c1c(Oc1cc(O)ccn1)nn2C1CCC(F)(F)CC1` [Compound 187, 2-((4-amino-1-(4,4-difluorocyclohexyl)-1H-pyrazolo[3,4-d]pyrimidin-3-yl)oxy)pyridin-4-ol], with 10 nM.

Regarding `Nc1ncnc2c1c(Oc1cc(Cl)ccn1)nn2C1CCNCC1` [Compound 188], the IC50 came to 29.7 nM. Regarding `Nc1ncnc2c1c(Oc1cc(Cl)ccn1)nn2C1CCCNC1` (stereo not shown) [Compound 189], the IC50 is roughly 24 nM. In the case of `Nc1ncnc2c1c(Oc1cc(C(F)(F)F)ccn1)nn2C1CNCC(F)(F)C1` (stereo not shown) [Compound 190], the IC50 is roughly 54 nM. With `Nc1ncnc2c1c(Oc1cc(C(F)(F)F)ccn1)nn2C1CCCC1` [Compound 192], the IC50 stood at 19.2 nM. Turning to `Nc1ncnc2c1c(Oc1cc(C(F)(F)F)ccn1)nn2C1CCOC1` (stereo not shown) [Compound 193], the IC50 was 47.7 nM.

In the case of `Nc1ncnc2c1c(Oc1cc(C(F)(F)F)ccn1)nn2C1CCNCC1` [Compound 194], the IC50 worked out at 67.8 nM. Consider `Nc1ncnc2c1c(Oc1cc(C(F)(F)F)ccn1)nn2C1CCCNC1` (stereo not shown) [Compound 195], for which the IC50 came out at 56.8 nM. As for `CC(C)(C)OC(=O)N1CCC(Cn2nc(Oc3cc(C(F)(F)F)ccn3)c3c(N)ncnc32)C(F)(F)C1` (stereo not shown) [Compound 196], the IC50 amounted to 64.8 nM. Regarding `Nc1ncnc2c1c(Oc1cc(C(F)(F)F)ccn1)nn2CC1CCNCC1(F)F` (stereo not shown) [Compound 197], the IC50 was 13.8 nM. For `Nc1ncnc2c1c(Oc1cc(C(F)(F)F)ccn1)nn2C1CCOCC1` [Compound 198], the IC50 was 29.4 nM. With `CC(C)(C)OC(=O)N1CCC(n2nc(Oc3cc(C(F)(F)F)ccn3)c3c(N)ncnc32)C1` (stereo not shown) [Compound 199], the IC50 amounted to 38.9 nM. Still for that read-out and setting: then `Nc1ncnc2c1c(Oc1cc(C(F)(F)F)ccn1)nn2C1CCCCC1` [Compound 200], with 14.7 nM; and `Nc1ncnc2c1c(Oc1cc(Cl)ccn1)nn2C1CCCC1` [Compound 201], with 16.7 nM; and `Nc1ncnc2c1c(Oc1cc(Cl)ccn1)nn2C1CCOC1` (stereo not shown) [Compound 202], with 55.7 nM.

Consider `N#Cc1ccnc(Oc2nn(C3CCC(F)(F)CC3)c3ncnc(N)c23)c1` [Compound 203], for which the IC50 was found to be 84.8 nM.

The same assay, now with this note: tgCDPK1 IC50, inhibition of T. gondii CDPK1; at least three independent replicates.
In turn, `Nc1ncnc2c1c(Oc1cccc(Cl)c1)nn2[C@H]1C[C@H](F)C1` [Compound 171] yielded an IC50 of 41.1 nM.
